From patent US9695155B2, “Herbicidal substituted pyrimidinyloxy benzene compounds” (E. I. DU PONT DE NEMOURS AND COMPANY, priority 2013, dated 2017)

How the values were obtained:
[1] = test system: field violet; experiment: Test D postemergence; type: in vivo, Viola arvensis; conditions: Viola arvensis, post-emergence, scale 0 to 100 (0 no effect, 100 complete control), read-out: Plant response rating, Field Violet
Outline: (§1)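 Values are 0–100 visual control ratings (0 none, 100 complete) given 7–21 days after application. Soil for preemergence was silt loam; postemergence plants stood 2–18 cm tall.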

[2] = test system: deadnettle; experiment: Test D postemergence; type: in vivo, Lamium amplexicaule; conditions: Lamium amplexicaule, post-emergence, scale 0 to 100 (0 no effect, 100 complete control), read-out: Plant response rating, Deadnettle
Outline: as §1

[3] = test system: wild mustard; experiment: Test D postemergence; type: in vivo, Sinapis arvensis; conditions: Brassica, post-emergence, scale 0 to 100 (0 no effect, 100 complete control), read-out: Plant response rating, Mustard, Wild
Outline: as §1

[4] = test system: kochia; experiment: Test D postemergence; type: in vivo, Kochia scoparia; conditions: Bassia scoparia, post-emergence, scale 0 to 100 (0 no effect, 100 complete control), read-out: Plant response rating, Kochia
Outline: as §1

[5] = test system: field poppy; experiment: Test D postemergence; type: in vivo, Papaver rhoeas; conditions: Papaver rhoeas, post-emergence, scale 0 to 100 (0 no effect, 100 complete control), read-out: Plant response rating, Field Poppy
Outline: as §1

[6] = test system: oilseed rape; experiment: Test D preemergence; type: in vivo, Brassica napus; conditions: Brassica napus, pre-emergence, scale 0-100, read-out: Plant response rating, Oilseed Rape
Outline: as §1

[7] = test system: field bindweed; experiment: Test E postemergence; type: in vivo, Convolvulus arvensis; conditions: Convolvulus arvensis, post-emergence, read-out: Plant response rating, Field Bindweed
Outline: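 Response was scored visually on a 0-100 scale (100 = complete control) versus controls after 14 to 21 days in the greenhouse. Test chemicals, formulated with surfactant in a non-phytotoxic solvent mixture, had been applied preemergence to seeds in silt loam soil or postemergence to 1- to 4-leaf plants in potting medium.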

[8] = test system: bromegrass, downy; experiment: Test D postemergence; type: in vivo, Bromus tectorum; conditions: Bromus tectorum, post-emergence, Postemergence, scale 0 to 100 (0 no effect, 100 complete control), read-out: Plant response rating, Bromegrass, Downy
Outline: as §1

[9] = test system: green foxtail; experiment: Test D preemergence; type: in vivo, Setaria viridis; conditions: Setaria viridis, pre-emergence, scale 0-100, read-out: Plant response rating, Foxtail, Green
Outline: as §1

[10] = test system: bluegrass; experiment: Test D preemergence; type: in vivo, Poa annua; conditions: Poa annua, pre-emergence, scale 0-100, read-out: Plant response rating, Bluegrass
Outline: as §1

[11] = test system: chamomile; experiment: Test D postemergence; type: in vivo, Matricaria inodora; conditions: Tripleurospermum inodorum, post-emergence, scale 0 to 100 (0 no effect, 100 complete control), read-out: Plant response rating, Chamomile
Outline: as §1

[12] = test system: wild radish; experiment: Test D postemergence; type: in vivo, Raphanus raphanistrum; conditions: Raphanus raphanistrum, post-emergence, scale 0 to 100 (0 no effect, 100 complete control), read-out: Plant response rating, Radish, Wild
Outline: as §1

[13] = test system: speedwell; experiment: Test D postemergence; type: in vivo, Veronica persica; conditions: Veronica persica, post-emergence, scale 0 to 100 (0 no effect, 100 complete control), read-out: Plant response rating, Speedwell
Outline: as §1

N#Cc1cccc(Oc2ncc(Cl)cn2)c1-n1cc(C(F)(F)F)cn1 [Compound 58, 3-[(5-chloro-2-pyrimidinyl)oxy]-2-[4-(trifluoromethyl)-1H-pyrazol-1-yl]benzonitrile]
pest or weed control at 31 g/ha ([1]; 31 g ai/ha): 100%
pest or weed control at 62 g/ha ([1]; 62 g ai/ha): 100%
pest or weed control at 125 g/ha ([1]; 125 g ai/ha): 100%
pest or weed control at 250 g/ha ([1]; 250 g ai/ha): 100%
pest or weed control at 31 g/ha ([2]; 31 g ai/ha): 80%
pest or weed control at 62 g/ha ([2]; 62 g ai/ha): 100%
pest or weed control at 125 g/ha ([2]; 125 g ai/ha): 100%
pest or weed control at 250 g/ha ([2]; 250 g ai/ha): 100%
pest or weed control at 31 g/ha ([3]; 31 g ai/ha): 85%
pest or weed control at 62 g/ha ([3]; 62 g ai/ha): 100%
pest or weed control at 125 g/ha ([3]; 125 g ai/ha): 100%
pest or weed control at 250 g/ha ([3]; 250 g ai/ha): 100%
pest or weed control at 31 g/ha ([4]; 31 g ai/ha): 95%
pest or weed control at 62 g/ha ([4]; 62 g ai/ha): 95%
pest or weed control at 125 g/ha ([4]; 125 g ai/ha): 95%
pest or weed control at 250 g/ha ([4]; 250 g ai/ha): 95%
pest or weed control at 31 g/ha ([5]; 31 g ai/ha): 80%
pest or weed control at 62 g/ha ([5]; 62 g ai/ha): 85%
pest or weed control at 125 g/ha ([5]; 125 g ai/ha): 100%
pest or weed control at 250 g/ha ([5]; 250 g ai/ha): 100%
plant injury at 31 g/ha ([6]; 31 g ai/ha): 100%
plant injury at 62 g/ha ([6]; 62 g ai/ha): 100%
plant injury at 125 g/ha ([6]; 125 g ai/ha): 100%
plant injury at 250 g/ha ([6]; 250 g ai/ha): 100%
pest or weed control at 31 g/ha ([7]; Postemergence, 31 g ai/ha, scale 0 to 100): 60%
pest or weed control at 62 g/ha ([7]; Postemergence, 62 g ai/ha, scale 0 to 100): 70%
pest or weed control at 125 g/ha ([7]; Postemergence, 125 g ai/ha, scale 0 to 100): 70%
pest or weed control at 250 g/ha ([7]; Postemergence, 250 g ai/ha, scale 0 to 100): 80%
pest or weed control at 16 g/ha ([7]; postemergence, 16 g ai/ha, scale 0 to 100, 0 no effect, 100 complete control): 50%
pest or weed control at 31 g/ha ([8]; 31 g ai/ha): 25%
pest or weed control at 62 g/ha ([8]; 62 g ai/ha): 30%
pest or weed control at 125 g/ha ([8]; 125 g ai/ha): 35%
pest or weed control at 250 g/ha ([8]; 250 g ai/ha): 35%
pest or weed control at 31 g/ha ([9]; 31 g ai/ha): 100%
pest or weed control at 62 g/ha ([9]; 62 g ai/ha): 100%
pest or weed control at 125 g/ha ([9]; 125 g ai/ha): 100%
pest or weed control at 250 g/ha ([9]; 250 g ai/ha): 100%
pest or weed control at 31 g/ha ([10]; 31 g ai/ha): 10%
pest or weed control at 62 g/ha ([10]; 62 g ai/ha): 50%
pest or weed control at 125 g/ha ([10]; 125 g ai/ha): 100%
pest or weed control at 250 g/ha ([10]; 250 g ai/ha): 100%
pest or weed control at 31 g/ha ([11]; 31 g ai/ha): 10%
pest or weed control at 62 g/ha ([11]; 62 g ai/ha): 25%
pest or weed control at 125 g/ha ([11]; 125 g ai/ha): 35%
pest or weed control at 250 g/ha ([11]; 250 g ai/ha): 35%
pest or weed control at 31 g/ha ([12]; 31 g ai/ha): 65%
pest or weed control at 62 g/ha ([12]; 62 g ai/ha): 70%
pest or weed control at 125 g/ha ([12]; 125 g ai/ha): 90%
pest or weed control at 250 g/ha ([12]; 250 g ai/ha): 95%
pest or weed control at 31 g/ha ([13]; 31 g ai/ha): 100%
pest or weed control at 62 g/ha ([13]; 62 g ai/ha): 100%
pest or weed control at 125 g/ha ([13]; 125 g ai/ha): 100%
pest or weed control at 250 g/ha ([13]; 250 g ai/ha): 100%
